This passage reports IC50 results from patent US5502053A, “HIV protease inhibitor compounds” (Merck & Co., Inc., priority 1994, dated 1996).

For the assay, the target named is T1, HIV protease (Human immunodeficiency virus type 1 group M subtype B, UniProt P03366).
T1 construct: made in house; host or cells: Escherichia coli
The assay is described as follows: Assay for Inhibition of Microbial Expressed Vital Protease (protease expressed in Eschericia coli, peptide substrate, HPLC of products). The note with it: peptide substrate Val-Ser-Gln-Asn-(betanapthyl)Ala-Pro-Ile-Val 0.5 mg/mL; 50 mM Na acetate, pH 5.5, 30° C., 1 hour; 15 ul of 0.33 nM protease. The class given is biochemical. Here is the method: Assay for Inhibition of Microbial Expressed Vital Protease
Inhibition studies of the reaction of the protease expressed in Eschericia coli with a peptide substrate Val-Ser-Gln-Asn-(betanapthyl)Ala-Pro-Ile-Val, 0.5 mg/mL at the time the reaction is initiated! were in 50 mM Na acetate, p H 5.5, at 30° C. for 1 hour. Various concentrations of inhibitor in 1.0 ul DMSO were added to 25 ul of the peptide solution in water. The reaction is initiated by the addition of 15 ul of 0.33 nM protease (0.11 ng) in a solution of 0.133M Na acetate pH 5.5 and 0.1% bovine serum albumin. The reaction was quenched with 160 ul of 5% phosphoric acid. Products of the reaction were separated by HPLC (VYDAC wide pore 5 cm C-18 reverse phase, acetonitrile gradient, 0.1% phosphoric acid). The extent of inhibition of the reaction was determined from the peak heights of the products.

Each structure is given as a SMILES string.

`CCCCC(=O)C[C@@H](CC1CCCCC1)[C@@H](O)C[C@@H](Cc1ccccc1)C(=O)N[C@H]1c2ccccc2C[C@H]1O` [Compound A, N-(2(R)-hydroxy-1(S)-indanyl)-5(R)-cyclohexylmethyl-4(S)-hydroxy-7-oxo-2(R) -phenylmethyl undecaneamide] displayed an IC50 of 0.0115 to 0.058 µM. Compound `CC(C)(C)CC(=O)C[C@@H](CC1CCCCC1)[C@@H](O)C[C@@H](Cc1ccccc1)C(=O)N[C@H]1c2ccccc2C[C@H]1O` [Compound B, N-(2(R)-hydroxy-1(S)-indanyl)-5(R)-cyclohexylmethyl-9,9-dimethyl-4(S)-hydroxy-7-oxo-2(R)-phenylmethyl decaneamide] registered a 50% inhibitory concentration (IC50) of 0.0115 to 0.058 µM.

By IC50 is commonly meant the concentration needed to halve the response being measured.
